In article PMC4666381 (2015):

Assays:
[1] = system: DNB aptamer (RNA, aptamer) GGUGCCUUAUUCCGGACGCCGGGCCCGAAUGCUGCUACGGCAGUCGAAGACAACAUCGCGCCCUUCGGAGGCACC; test: fluorescence competition; settings: 125 mM KCl, 5 mM MgCl2; 20 mM Hepes pH 7.4; displaces SR-DN (1 μM) from DNB (100 nM); calculated from IC50
[2] = system: DNB aptamer (RNA, aptamer) GGUGCCUUAUUCCGGACGCCGGGCCCGAAUGCUGCUACGGCAGUCGAAGACAACAUCGCGCCCUUCGGAGGCACC; test: fluorescence increase titration; settings: 125 mM KCl, 5 mM MgCl2; 20 mM Hepes pH 7.4, 25°C; probe 100 nM
[3] = system: clone 5 (RNA, aptamer) GGAGCUCAGCCUUCACUGCGGUUGCCCUCCGUGCUUCAUGCUUCCCUGCUUCGGCAGUCGCGGUAAACCGUAGAGAAAGUUGAGGCACCACGGUCGGAUCCAC; test: fluorescence increase titration; settings: 125 mM KCl, 5 mM MgCl2; 20 mM Hepes pH 7.4, 25°C; probe 1 µM
[4] = system: wt-DNB aptamer (RNA, aptamer) GGAGCUCAGCCUUCACUGCCUUAUUCCGGACGCCGGGCCCGAAUGCUGCUACGGCAGUCGAAGACAACAUCGCGCCCUUCGGAGGCACCACGGUCGGAUCCAC; test: fluorescence increase titration; settings: 125 mM KCl, 5 mM MgCl2; 20 mM Hepes pH 7.4, 25°C; probe 100 nM

Compound	KD [1]	KD [2]	KD [3]	KD [4]
O=[N+]([O-])c1ccc(NCCOCCOCCNS(=O)(=O)c2ccc(C3=c4cc5c6c(c4Oc4c3cc3c7c4CCCN7CCC3)CCC[N+]=6CCC5)c(S(=O)(=O)[O-])c2)c([N+](=O)[O-])c1	–	18.0 ± 1.8 µM	52.6 ± 17.8 µM	–
CCN(CC)c1ccc2c(-c3ccc(S(=O)(=O)NCCOCCOCCNc4ccc([N+](=O)[O-])cc4[N+](=O)[O-])cc3S(=O)(=O)[O-])c3ccc(=[N+](CC)CC)cc-3oc2c1	–	0.80 ± 0.10 µM	20.1 ± 3.9 µM	1.44 ± 0.08 µM
CN(C)c1ccc2c(-c3ccc(C(=O)NCCOCCOCCNc4ccc([N+](=O)[O-])cc4[N+](=O)[O-])cc3C(=O)[O-])c3ccc(=[N+](C)C)cc-3oc2c1	–	0.35 ± 0.05 µM	7.77 ± 0.9 µM	–

Continued, values first:

KD [1]	KD [2]	KD [3]	KD [4]	Compound
0.1 ± 0.014 µM	–	–	–	NCCOCCOCCNc1ccc([N+](=O)[O-])cc1[N+](=O)[O-]
–	8.55 ± 0.53 µM	27.2 ± 3.2 µM	–	O=C(NCCOCCOCCNc1ccc([N+](=O)[O-])cc1[N+](=O)[O-])c1ccc(-c2c3ccc(=O)cc-3oc3cc(O)ccc23)c(C(=O)O)c1
–	4.48 ± 0.60 µM	–	–	N=c1ccc2c(-c3ccc(C(=O)NCCOCCOCCNc4ccc([N+](=O)[O-])cc4[N+](=O)[O-])cc3C(=O)O)c3ccc(N)cc3oc-2c1
